In patent publication US10590109B2, “Heterocyclic compounds used as FGFR inhibitors” (Nanjing InnoCare Pharma Tech Co., Ltd., priority 2016, dated 2020):

Legend:
[1] = molecular target: human recombinant FGFR3 catalytic structural domain protein (Homo sapiens (Human), UniProt P22607); assay: FGFR3 activity inhibition test (HTRF kinase assay); type: biochemical; conditions: 90 μM ATP
Method: FGFR3 Activity Inhibition Test
The influence of the compound according to the present invention on the activity of fibroblast growth factor receptor 3 (FGFR3) was evaluated by an in vitro kinase assay experiment.
(§1) The experimental method is summarized as follows:
The in vitro activity of FGFR3 was determined by assaying the phosphorylation level of the substrate in the kinase reaction, by means of an HTRF kinase assay kit. The reaction buffer comprised the following components: 5-fold diluted Enzymatic buffer/kinase 5× (Cisbio, Catalog number 62EZBFDD) (main ingredient: 50 mM HEPES, pH 7.0), 5 mM MgCl2, 1 mM DTT; the human recombinant FGFR3 catalytic structural domain protein (amino acids 399-806) was commercially available from Sino Biological Inc., diluted with the reaction buffer to a 0.3 ng/μL kinase solution; the substrate reaction solution comprised a biotin labeled tyrosine kinase substrate diluted with the reaction buffer to 1000 nM (Cisbio, catalog number 62TK0PEC), and 90 μM ATP, and the assay solution comprised an Eu^3+ labeled cage-shaped antibody (Cisbio, Catalog number 61T66KLB) diluted with the assay buffer (Cisbio, Catalog number 62SDBRDF) to 0.125 ng/μL, and 62.5 nM streptavidin labeled XL665 (Cisbio, Catalog number 610SAXLB).
(§2) The compound was dissolved and diluted in 100% DMSO to 100 μM, then 4-fold-series diluted with DMSO to a minimum concentration of 0.0061 μM, and each concentration point was then 40-fold diluted with the reaction buffer. If the IC50 value of the compound was very low, the initial concentration of the compound could be reduced.
(§3) 4 μL of a compound solution and 2 μL of an FGFR3 kinase solution were added into a 384 well assay plate (Thermo, Catalog number 264706), mixed uniformly and then incubated for 15 min at room temperature; subsequently, 4 μL of the substrate reaction solution was added therein, and the reaction mixture was incubated for 60 min at room temperature; and then 10 μL of an assay solution of an equal volume to the reaction was added therein and mixed uniformly, followed by placement at room temperature. After 60 min, the enzyme reaction was terminated by EDTA in the assay solution, and the phosphorylated products were identified by both the Eu^3+ labeled cage-shaped antibody (donor) and the streptavidin labeled XL665 antibody (receptor) at the same time. After the excitation with laser, the donors and receptors that were close to each other experienced energy resonance transfer, and the energy transferred from the donor (620 nm) to the receptor (665 nm) could be detected with Envision. The ratio of 665/620 is in positive correlation to the phosphorylation degree of the substrate, thereby to detect the FGFR3 kinase activity. […] The inhibition percentage of the compound against […] activity could be calculated with the following formula: Inhibition percentage=100−100*(signalcompound−signalnegative control)/(signalpositive control−signalnegative control)
(§4) The IC50 value of the compound was calculated by the following formula, from 10 concentration points, with XLfit (ID Business Solutions Ltd., UK): Y=Bottom+(Top−Bottom)/(1+10^((Log IC50−X)*slope factor)) Where, Y is the inhibition percentage, Bottom is the bottom plateau of the curve (the bottom plateau of the S-type curve), Top is the top plateau of the curve (the top plateau of the S-type curve), and X is the log value of the compound concentration to be measured.

[2] = molecular target: human recombinant FGFR2 catalytic structural domain protein (Homo sapiens (Human), UniProt P21802); assay: FGFR2 activity inhibition test (HTRF kinase assay); type: biochemical; conditions: 50 μM ATP
Chain of human recombinant FGFR2 catalytic structural domain protein (P21802 400-821): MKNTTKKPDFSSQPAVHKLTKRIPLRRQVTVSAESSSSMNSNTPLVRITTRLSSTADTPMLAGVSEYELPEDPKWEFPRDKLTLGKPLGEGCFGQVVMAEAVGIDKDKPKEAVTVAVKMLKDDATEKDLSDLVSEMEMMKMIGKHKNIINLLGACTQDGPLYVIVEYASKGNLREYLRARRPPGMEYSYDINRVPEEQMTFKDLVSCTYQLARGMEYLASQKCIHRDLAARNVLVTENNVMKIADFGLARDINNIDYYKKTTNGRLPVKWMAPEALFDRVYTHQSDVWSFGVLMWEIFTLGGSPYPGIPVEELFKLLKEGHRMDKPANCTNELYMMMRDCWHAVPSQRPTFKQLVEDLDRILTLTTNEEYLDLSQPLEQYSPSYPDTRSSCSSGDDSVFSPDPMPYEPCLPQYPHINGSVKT
Method: FGFR2 Activity Inhibition Test
The influence of the compound according to the present invention on the activity of fibroblast growth factor receptor 2 (FGFR2) was evaluated by an in vitro kinase assay experiment.
as §1
The in vitro activity of FGFR2 was determined by assaying the phosphorylation level of the substrate in the kinase reaction, by means of an HTRF kinase assay kit. The reaction buffer comprised the following components: 5-fold diluted Enzymatic buffer/kinase 5× (Cisbio, Catalog number 62EZBFDD) (main ingredient: 50 mM HEPES, pH 7.0), 5 mM MgCl2, 1 mM DTT; the human recombinant FGFR2 catalytic structural domain protein (amino acids 400-821) was commercially available from Beijing Sino Biological Inc., diluted with the reaction buffer to a 0.045 ng/μL kinase solution; the substrate reaction solution comprised a biotin labeled tyrosine kinase substrate diluted with the reaction buffer to 800 nM (Cisbio, catalog number 62TK0PEC), and 50 μM ATP, and the assay solution comprised an Eu^3+ labeled cage-shaped antibody (Cisbio, Catalog number 61T66KLB) diluted with the assay buffer (Cisbio, Catalog number 62SDBRDF) to 0.125 ng/μL, and 50 nM streptavidin labeled XL665 (Cisbio, Catalog number 610SAXLB).
as §2
as §3, with “FGFR2” for “FGFR3”
(§5) The IC50 value of the compound was calculated by the following formula, from 10 concentration points, with XLfit (ID Business Solutions Ltd., UK): Y=Bottom+(Top−Bottom)/(1+10^((Log IC50−X)*slope factor))
(§6) Where, Y is the inhibition percentage, Bottom is the bottom plateau of the curve (the bottom plateau of the S-type curve), Top is the top plateau of the curve (the top plateau of the S-type curve), and X is the log value of the compound concentration to be measured.

[3] = molecular target: human recombinant FGFR1 catalytic structural domain protein (Homo sapiens (Human), UniProt P11362); assay: FGFR1 activity inhibition test (HTRF kinase assay); type: biochemical; conditions: 40 μM ATP
Chain of human recombinant FGFR1 catalytic structural domain protein (P11362 other isoform, or with tags, fused parts or gaps): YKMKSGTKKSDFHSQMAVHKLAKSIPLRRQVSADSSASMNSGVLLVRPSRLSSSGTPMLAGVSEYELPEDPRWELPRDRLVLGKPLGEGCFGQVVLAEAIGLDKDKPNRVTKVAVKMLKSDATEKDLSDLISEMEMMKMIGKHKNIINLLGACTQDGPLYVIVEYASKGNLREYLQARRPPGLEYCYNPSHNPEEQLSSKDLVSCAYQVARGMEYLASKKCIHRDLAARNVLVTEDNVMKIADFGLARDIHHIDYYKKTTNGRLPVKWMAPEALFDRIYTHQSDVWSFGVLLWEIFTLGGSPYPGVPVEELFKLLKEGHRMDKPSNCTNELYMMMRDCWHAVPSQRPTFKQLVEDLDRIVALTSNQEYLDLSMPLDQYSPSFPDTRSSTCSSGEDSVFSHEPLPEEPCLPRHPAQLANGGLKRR
Method: FGFR1 Activity Inhibition Test
The influence of the compound according to the present invention on the activity of fibroblast growth factor receptor 1 (FGFR1) was evaluated by an in vitro kinase assay experiment.
as §1
The in vitro activity of FGFR1 was determined by assaying the phosphorylation level of the substrate in the kinase reaction, by means of an HTRF kinase assay kit.
(§7) If the IC50 value of the compound was very low, the initial concentration of the compound could be reduced.
(§8) After 60 min, the enzyme reaction was terminated by EDTA in the assay solution, and the phosphorylated products were identified by both the Eu^3+ labeled cage-shaped antibody (donor) and the streptavidin labeled XL665 antibody (receptor) at the same time. […] The inhibition percentage of the compound against FGFR1 activity could be calculated with the following formula: Inhibition percentage=100−100*(signalcompound−signalnegative control)/(signalpositive control−signalnegative control)
as §5, §6

[4] = molecular target: human recombinant FGFR4 catalytic structural domain protein (Homo sapiens (Human), UniProt P22455); assay: FGFR4 activity inhibition test (HTRF kinase assay); type: biochemical; conditions: 90 μM ATP
Chain of human recombinant FGFR4 catalytic structural domain protein (P22455 460-802): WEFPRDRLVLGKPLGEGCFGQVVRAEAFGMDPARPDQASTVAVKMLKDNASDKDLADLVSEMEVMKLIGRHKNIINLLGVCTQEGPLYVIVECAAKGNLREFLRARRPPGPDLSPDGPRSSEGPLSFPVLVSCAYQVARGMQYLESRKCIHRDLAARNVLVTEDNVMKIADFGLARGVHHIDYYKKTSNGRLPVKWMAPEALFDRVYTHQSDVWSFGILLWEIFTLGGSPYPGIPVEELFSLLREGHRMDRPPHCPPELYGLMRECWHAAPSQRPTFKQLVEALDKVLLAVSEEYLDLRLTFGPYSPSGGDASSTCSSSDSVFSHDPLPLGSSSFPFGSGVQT
Method: FGFR4 Activity Inhibition Test
The influence of the compound according to the present invention on the activity of fibroblast growth factor receptor 4 (FGFR4) was evaluated by an in vitro kinase assay experiment.
as §1
The in vitro activity of FGFR4 was determined by assaying the phosphorylation level of the substrate in the kinase reaction, by means of an HTRF kinase assay kit.
as §7
as §8, with “FGFR4” for “FGFR1”
as §4

[5] = test system: Hep3B cells; assay: Hep3B cell proliferation inhibition test (CellTiter-Glo); type: cell-based; conditions: Homo sapiens, 72 h, CTG
Method: Hep3B Cell Proliferation Inhibition Test
The influence of the compound according to the present invention on Hep3B cell proliferation was evaluated by a luminescence cell viability test.
as §1
A CellTilter-Glo (CTG) assay kit was used to detect an indicator ATP of active cellular metabolism by means of a unique stable luciferase, and the luminous signal produced in the test was in direct proportion to the count of active cells in the medium, thereby to detect the cell proliferation of Hep3B.
A CellTilter-Glo agent (Promega, G7572) was comprised of a CellTilter-Glo lyophilized powder and a CellTilter-Glo buffer, and the lyophilized powder was dissolved into the buffer in use.
Hep3B cells (ATCC, HB-8064) (cell source: Shanghai Academy of Life Sciences, Chinese Academy of Sciences) were cultured in a DMEM complete medium (Thermofisher, 11995073) containing a 10% FBS (GBICO, 10099-141) and 100 units/ml mycillin mixed solution (Thermofisher, 15140122). When the cells coverage reached 80-90% in the culture vessel, after the cells were digested and blown about with 0.25% pancreatin (containing EDTA) (Thermofisher, 25200056), they were planted in a white 384 well plate (Thermofisher, 164610), with 1000 cells in each well (27 μl of a DMEM complete medium), and then the 384 well plate was placed into an incubator at 37° C. and 5% CO2 and cultured overnight (18-20 h). The compound was dissolved and diluted in 100% DMSO to 100 μM, then 4-fold-series diluted with DMSO to a minimum concentration of 0.0061 μM, and each concentration point was 50-fold diluted with the FBS-free DMEM medium. If the IC50 value of the compound was very low, the initial concentration of the compound could be reduced. […] This 384 well plate was placed into an incubator at 37° C. and 5% CO2 for further culture, taken out after 72 h, and stood at room temperature for 30 min. The CTG agent was also taken out and balanced to room temperature. 15 μl of the CTG agent was added into each well, and placed onto a shaker to be gently shaken for 3 min to ensure sufficient cell lysis. After 10 min of standing to allow the luminescence signal to be stable, the luminescence signal was read with EnVision (Perkin Elmer).
The inhibition percentage of the compound against Hep3B cell proliferation could be calculated with the following formula: Inhibition percentage=100−100*(signalcompound−signalnegative control)/(signalpositive control−signalnegative control)
The IC50 value of the compound was calculated by the following formula, from 8 concentration points, with XLfit (ID Business Solutions Ltd., UK): Y=Bottom+(Top−Bottom)/(1+10^((Log IC50−X)*slope factor))
as §6

Chain of human recombinant FGFR3 catalytic structural domain protein (P22607 399-806): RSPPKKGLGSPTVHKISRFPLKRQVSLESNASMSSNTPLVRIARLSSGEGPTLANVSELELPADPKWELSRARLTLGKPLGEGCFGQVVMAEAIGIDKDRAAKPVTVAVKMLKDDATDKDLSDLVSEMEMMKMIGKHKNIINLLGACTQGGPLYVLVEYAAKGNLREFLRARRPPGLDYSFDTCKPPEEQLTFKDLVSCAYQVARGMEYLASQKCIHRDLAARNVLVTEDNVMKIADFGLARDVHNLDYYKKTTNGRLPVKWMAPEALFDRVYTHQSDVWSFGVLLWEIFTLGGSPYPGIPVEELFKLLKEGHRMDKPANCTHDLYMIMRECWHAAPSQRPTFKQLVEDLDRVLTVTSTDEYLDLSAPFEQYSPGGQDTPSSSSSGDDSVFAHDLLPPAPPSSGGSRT

Row | Structure (SMILES) | IC50 [2] [nM] | IC50 [3] [nM] | IC50 [4] [nM] | IC50 [5] [nM] | IC50 [1] [nM]
1 | CN(C(=O)Nc1cc(Cl)c(C#N)cn1)c1ccc(CN2CCOCC2=O)c(C=O)n1 [Compound 11] | > 1000 | > 1000 | 10 to 100 | – | > 1000
2 | CC(C)Oc1cc(NC(=O)N(C)c2ccc(CN3CCOCC3=O)c(C=O)n2)ncc1C#N [Compound 13] | > 1000 | > 1000 | 10 to 100 | – | > 1000
3 | COCCNc1cc(NC(=O)N(C)c2ccc(CO)c(C=O)n2)ncc1C#N [Compound 21, 3-(5-cyano-4-((2-methoxyethyl)amino)pyrid-2-yl)-1-(6-formyl-5-(hydroxymethyl)pyrid-2-yl)-1-methylurea] | > 1000 | > 1000 | 100 to 1000 | – | > 1000
4 | CN(C(=O)Nc1cc(Cl)c(C#N)cn1)c1ccc(CO)c(C=O)n1 [Compound 22, 3-(4-chloro-5-cyanopyrid-2-yl)-1-(6-formyl-5-(hydroxymethyl)pyrid-2-yl)-1-methylurea] | > 1000 | > 1000 | 100 to 1000 | – | > 1000

Continued, in another order:

Row | IC50 [2] [nM] | IC50 [3] [nM] | IC50 [4] [nM] | IC50 [5] [nM] | Structure (SMILES) | IC50 [1] [nM]
5 | > 1000 | > 1000 | < 10 | – | COCCOc1cc(NC(=O)N(C)c2ccc(CN3CCN(C)CC3=O)c(C=O)n2)ncc1C#N [Compound 20, 3-(5-cyano-4-(2-methoxyethoxy)pyrid-2-yl)-1-(6-formyl-5-((4-methyl-2-carbonylpiperazin-1-yl)methyl)pyrid-2-yl)-1-methylurea] | > 1000
6 | > 1000 | > 1000 | 10 to 100 | 50 to 100 | COCCNc1cc(NC(=O)N(C)c2ccc(C3CCNCC3)c(C=O)n2)ncc1C#N [Compound 23, 3-(5-cyano-4-((2-methoxyethyl)amino)pyrid-2-yl)-1-(6-formyl-5-(piperidin-4-yl)pyrid-2-yl)-1-methylurea] | –
7 | > 1000 | > 1000 | < 10 | – | C[C@H](CO)Oc1cc(NC(=O)N(C)c2ccc(CN3CCN(C)CC3=O)c(C=O)n2)ncc1C#N [Compound 25, (R)-3-(5-cyano-4-((1-hydroxyprop-2-yl)oxy)pyrid-2-yl)-1-(6-formyl-5-((4-methyl-2-carbonylpiperazin-1-yl)methyl)pyrid-2-yl)-1-methylurea] | > 1000
